Series [1] relates to human skin tissue. Briefly: Effect of proguanil on skin color of cultured human skin tissue. The following applies: proguanil 150, 180, 210, 240, 270 or 300 μM; Day 5; versus DMSO; FIG. 12. In kind it is cell-based. The procedure:
A normal human skin tissue, which was obtained at the time of surgical operation, was provided by a medical college (department of plastic surgery). The human skin tissue, from which subcutaneous fat was previously trimmed, was cut into small pieces having a size of about 1 cm×1 cm by knife. The small pieces were cultured by using a 6-well plate at 37° C. under a 5 vol % CO2 atmospheric conditions. In the culture, Advanced DMEM medium containing a 10% (v/v) Fetal Bovine Serum (FBS) (Thermo Fisher Scientific, respectively) was used. A human skin tissue was allowed to stand still in a 6-well plate. Proguanil was added in the medium at a final concentration of 150, 180, 210, 240, 270 or 300 μM and then tissue culture was performed. As a control, DMSO was added in the same amount. Medium replacement was carried out every 2 to 3 days. Day 5 after initiation of the culture, the appearance of the skin tissue was observed and photographed.

Another series relates to Pmel17. Put plainly: Melanin (melanosome) decomposition in epidermal keratinocytes that incorporated MNT-1 melanosome fraction. Particulars: keratinocytes with incorporated melanosome, proguanil 10 or 30 μM, 2 days, FIG. 17. Type of series: cell-based, human. The procedure:
Normal human neonatal foreskin-derived epidermal keratinocytes (Human Epidermal Keratinocytes, neonatal (HEKn) lightly; keratinocytes) were purchased from Thermo Fisher Scientific. Melanoma cell strain MNT-1 cells were given by Dr. […] (University La Sapienza, Rome, Italy). The keratinocytes were cultured in a grow medium (Epilife) epidermal keratinocytes (Thermo Fisher Scientific) supplemented with a growth additive (Humedia-KG) (manufactured by Kurabo Industries Ltd.) at 37° C. in 5 vol % CO2 atmospheric conditions. As a grow medium MNT-1 cells, RPMI1640 medium (Thermo Fisher Scientific) containing AIM-V medium and Fetal Bovine Serum (FES) each in an amount of 10% (v/v) was used and culture was performed at 37° C. in 5 vol % CO2 atmospheric conditions. A melanosome fraction was isolated and prepared from MNT-1 cells by a predetermined method (Murase et al. (2013), J Invest Dermatol, 133: 2416-2424). […] The resultant supernatant was subjected to quantitative determination of protein by BCA (bicinchoninic acid) method using Pierce BCA Protein Assay Kit (Thermo Fisher Scientific) and Bovine Serum Albumin (BSA) as a standard substance. […] Expression of β-actin as the internal standard was evaluated by using a monoclonal antibody specific for β-actin (Sigma-Aldrich, 1:5000). […]

In series [2] the test system is melanocytes (HEMn-LP, HEMn-DP). Briefly: Intracellular melanin amount of melanocytes in melanocyte single culture system. In kind it is cell-based, human. The following applies: melanocytes (lightly and darkly); proguanil 3, 10 or 30 μM; 7 days; versus DMSO; FIGS. 15A, 15B.
Description: Normal human neonatal foreskin-derived epidermal melanocytes (Human Epidermal Melanocytes, neonatal, lightly pigmented donor (HEMn-LP) and Human Epidermal Melanocytes, neonatal, darkly pigmented donor (HEMn-DP); melanocytes (lightly) and melanocytes (darkly)), a growth medium for epidermal melanocytes (Medium254) and a growth additive (HMGS) for the medium were purchased from Thermo Fisher Scientific. Melanocytes were cultured at 37° C. in 5 vol % CO2 atmospheric conditions. Melanocytes (lightly and darkly) were seeded in 6-well plates at a cell density of 2×10^5 cells/well (2 mL/well). […] The following day, proguanil was added at a final concentration of 3, 10 or 30 μM and culture was performed at 37° C. in 5 vol % CO2 atmospheric conditions for 7 days. As a control, the same amount of DMSO was added. Note that medium replacement was carried out every 2 to 3 days. After completion of culture, the cell culture plates were washed with PBS and the cells were collected by use of a cell scraper in 1.5 mL micro tubes. To individual tubes, 2M NaOH (150 μL) was added and treatment was performed at 100° C. for 60 minutes to lyse the cells. Each of the lysates was centrifuged at a 21,640 g for 10 minutes at room temperature and the supernatant was recovered. The absorbance of the supernatant recovered was measured at a wavelength of 405 nm and the amount of melanin per well was calculated.
In series [3] the test system is human skin tissue. Briefly: HE staining of skin tissue cultured with proguanil (tissue damage). In kind it is cell-based. Particulars: proguanil 180 μM; 5 days; FIG. 13 lower stage. The procedure:
(§1) The human skin tissue, from which subcutaneous fat was previously trimmed, was cut into small pieces having a size of about 1 cm×1 cm by knife. The small pieces were cultured by using a 6-well plate at 37° C. under a 5 vol % CO2 atmospheric conditions. In the culture, Advanced DMEM medium containing a 10% (v/v) Fetal Bovine Serum (FBS) (Thermo Fisher Scientific, respectively) was used. […] More specifically, the skin tissue was embedded in paraffin and the resultant paraffine block was sliced to prepare paraffin sections of 5 μm in thickness. A Fontana ammonia silver solution (manufactured by MUTO PURE CHEMICALS Co., Ltd.) was allowed to react at room temperature for two hours to visually distinguish melanin granules. Thereafter, nuclear staining was performed using Kernechtrot solution (manufactured by MUTO PURE CHEMICALS Co., Ltd.). […] At the same time, HE staining was carried out.

Series [4] has as its system human skin tissue. Briefly: Fontana-Masson staining of skin tissue cultured with proguanil. In kind it is cell-based. The following applies: proguanil 180 μM; 5 days; versus DMSO control; FIG. 13 upper stage. Here is the method: as §1

These results are taken from US10966911B2, “Melanin decomposition inhibitor” (KAO CORPORATION, priority 2016, dated 2021).

Turning to `[H]/N=C(\N/C(=N/[H])Nc1ccc(Cl)cc1)NC(C)C` [proguanil, 1-(p-chlorophenyl)-5-isopropyl biguanide], the “darkening of the skin color” value with human skin tissue [1] was “induces darkening of the skin color in a dose-dependent manner”. Moreover, the “color density of the cell sediment” value in the series with Pmel17 was “confirmed to be increased in a concentration-dependent manner”. For the same molecule, in the series with Pmel17 (versus DMSO), the “intensity of the band of Pmel17” value is listed as “is increased in a concentration-dependent manner”. The “intracellular amount of melanin” value in series [2] is reported as “does not increase intracellular amount of melanin”. Besides, in the series with human skin tissue [3], the “tissue damage (HE staining)” value is on record as “no damage was induced in the tissue”. Also, the “deposition of melanin in the epidermis” value with human skin tissue [4] is reported as “melanin is accumulated in a wider range of the epidermis”.
